Reference: patent US12281122B1, “PI3K inhibitors” (Cogent Biosciences, Inc., priority 2023, dated 2025)

Columns and labels:
[1] = tested on: T47D (PI3Kα-H1047R) cell line; test: HTRF phospho-AKT(S473) cell assay in T47D cells; assay type: cell-based, human; details: Homo sapiens, 2 hours compound incubation
Outline: (§1)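 T47D: RPMI + 10% FBS + 0.2 units/mL insulin, top 5 μM. SKBR3: McCoy's 5A + 10% FBS, top 10 μM, 70 ng/ml PDGF-BB last 15 min. Both: 12-pt 1:3, 2 h, 37° C, max 0.5% DMSO; HTRF pAKT(S473); IC50.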

[2] = tested on: SKBR3 (PI3Kα-Wild Type) cell line; test: HTRF phospho-AKT(S473) cell assay in SKBR3 cells; assay type: cell-based, human; details: Homo sapiens, SK-BR-3, 2 hours compound incubation, PDGF-BB stimulated
Outline: as §1

[3] = T47D (PI3Kα-H1047R) cell line, phospho-AKT(S473) HTRF
[4] = SKBR3 (PI3Kα-Wild Type) cell line, phospho-AKT(S473) HTRF
[5] = HTRF phospho-AKT(S473), T47D (PI3Kα-H1047R) cells
[6] = HTRF phospho-AKT(S473), SKBR3 (PI3Kα-Wild Type) cells
[7] = T47D (PI3Kα-H1047R) cells, HTRF phospho-AKT(S473)
[8] = SKBR3 (PI3Kα-Wild Type) cells, HTRF phospho-AKT(S473)

| SMILES | IC50 [1, 5] [µM] | IC50 [2, 6] [µM] | other results |
| --- | --- | --- | --- |
| Cc1cc2c(=O)n(C)c(-c3ccc4nn(C)cc4c3)nc2c([C@@H](C)Nc2ccc(Cl)nc2C(=O)NS(C)(=O)=O)n1 [Compound 840, (R)-6-chloro-3-((1-(3,6-dimethyl-2-(2-methyl-2H-indazol-5-yl)-4-oxo-3,4-dihydropyrido[3,4-d]pyrimidin-8-yl)ethyl)amino)-N-(methylsulfonyl) picolinamide] |  |  | IC50 [1, 3]: 1 to 5 µM; IC50 [2, 4]: 1 to 5 µM |
| Cc1cc([C@@H](C)Nc2ccc(Cl)nc2C(=O)NS(C)(=O)=O)c2nc(-c3ccc4nn(C)cc4c3)n(C3CC3)c(=O)c2c1 [Compound 847, (R)-6-chloro-3-((1-(3-cyclopropyl-6-methyl-2-(2-methyl-2H-indazol-5-yl)-4-oxo-3,4-dihydroquinazolin-8-yl)ethyl)amino)-N-(methylsulfonyl) picolinamide] |  |  | IC50 [1, 3]: < 0.25 µM; IC50 [2, 4]: 1 to 5 µM |
| Cc1cc([C@@H](C)Nc2ccc(Cl)nc2C(=O)NS(C)(=O)=O)c2nc(N3CCC(Nc4cnn(C)c4)CC3)n(C)c(=O)c2c1 [Compound 291, (R)-6-chloro-3-((1-(3,6-dimethyl-2-(4-((1-methyl-1H-pyrazol-4-yl)amino)piperidin-1-yl)-4-oxo-3,4-dihydroquinazolin-8-yl)ethyl)amino)-N-(methylsulfonyl) picolinamide] |  |  | IC50 [1, 7]: < 0.25 µM; IC50 [2, 8]: 1 to 5 µM |
| CCn1c(N2CCC(c3nn(C)cc3F)CC2)nc2c([C@@H](C)Nc3ccc(Cl)nc3C(=O)NS(C)(=O)=O)cc(C)cc2c1=O [Compound 433, (R)-6-chloro-3-((1-(3-ethyl-2-(4-(4-fluoro-1-methyl-1H-pyrazol-3-yl)piperidin-1-yl)-6-methyl-4-oxo-3,4-dihydroquinazolin-8-yl)ethyl)amino)-N-(methylsulfonyl) picolinamide] |  |  | IC50 [1, 7]: < 0.25 µM; IC50 [2, 8]: ≥ 5 µM |
| Cc1cc([C@@H](C)Nc2ccc(Cl)nc2C(=O)NS(C)(=O)=O)c2nc(N3C[C@@H]4[C@H](C3)[C@H]4c3cnc(C(F)(F)F)nc3)n(C)c(=O)c2c1 [Compound 484, 6-chloro-3-(((R)-1-(3,6-dimethyl-4-oxo-2-((1R,5S,6S)-6-(2-(trifluoromethyl)pyrimidin-5-yl)-3-azabicyclo[3.1.0]hexan-3-yl)-3,4-dihydroquinazolin-8-yl)ethyl)amino)-N-(methylsulfonyl) picolinamide] | 0.25 to 0.5 | 1 to 5 |  |
| Cc1cc([C@@H](C)Nc2ccc(Cl)nc2C(=O)NS(C)(=O)=O)c2nc(N3CCN(c4ncc(Cl)cn4)CC3)n(C)c(=O)c2c1 [Compound 530, (R)-6-chloro-3-((1-(2-(4-(5-chloropyrimidin-2-yl)piperazin-1-yl)-3,6-dimethyl-4-oxo-3,4-dihydroquinazolin-8-yl)ethyl)amino)-N-(methylsulfonyl) picolinamide] | 0.25 to 0.5 | ≥ 5 |  |

Further lines, with some results ahead:

| IC50 [1, 5] [µM] | IC50 [2, 6] [µM] | SMILES | other results |
| --- | --- | --- | --- |
| < 0.25 | 1 to 5 | CC(=O)N1CCC(c2ccc(-c3nc4c([C@@H](C)Nc5ccc(Cl)nc5C(=O)NS(C)(=O)=O)cc(C)cc4c(=O)n3C)cc2F)CC1 [Compound 786, (R)-3-((1-(2-(4-(1-acetylpiperidin-4-yl)-3-fluorophenyl)-3,6-dimethyl-4-oxo-3,4-dihydroquinazolin-8-yl)ethyl)amino)-6-chloro-N-(methylsulfonyl) picolinamide] |  |
| 0.25 to 0.5 | ≥ 5 | Cc1cc([C@@H](C)Nc2ccc(Cl)nc2C(=O)NS(C)(=O)=O)c2nc(N3C[C@@H]4C[C@H]3CN4c3ccccn3)n(C)c(=O)c2c1 [Compound 604, 6-chloro-3-(((R)-1-(3,6-dimethyl-4-oxo-2-((1S,4S)-5-(pyridin-2-yl)-2,5-diazabicyclo [2.2.1]heptan-2-yl)-3,4-dihydroquinazolin-8-yl)ethyl)amino)-N-(methylsulfonyl) picolinamide] |  |
| < 0.25 | 1 to 5 | Cc1cc([C@@H](C)Nc2ccc(Cl)nc2C(=O)NS(C)(=O)=O)c2nc(N3CCC(n4ncc(F)c4C)CC3)n(C)c(=O)c2c1 [Compound 712, (R)-6-chloro-3-((1-(2-(4-(4-fluoro-5-methyl-1H-pyrazol-1-yl)piperidin-1-yl)-3,6-dimethyl-4-oxo-3,4-dihydroquinazolin-8-yl)ethyl)amino)-N-(methylsulfonyl) picolinamide] |  |
